In patent US9850206B2, “S1P and/or ATX modulating agents” (BIOGEN MA INC., priority 2012, dated 2017):
Read-outs that look alike come from different tables or passages of the source.

Experiments:
[1] = target: S1P5 (Homo sapiens, UniProt Q9H228); assay: S1P receptor activity assay (calcium flux, FLIPR TETRA), S1P5; assay type: cell-based
Description: (§1) Agonist percentage activation determinations were obtained by assaying sample compounds and referencing the Emax control for each receptor profiled. Antagonist percentage inhibition determinations were obtained by assaying sample compounds and referencing the control EC80 wells for each receptor profiled. The samples were run using a “Single Addition” assay protocol for the agonist and antagonist assay run. The protocol design was as follows:
(§2) Master stock solution: Unless specified otherwise, all sample compounds were diluted in 100% anhydrous DMSO including all serial dilutions. All control wells contained identical solvent final concentrations as did the sample compound wells.
(§3) Compound plate for assay: The sample compounds were transferred from a master stock solution into a daughter plate that was used in the assay. Each sample compound was diluted into assay buffer (1×HBSS with 20 mM HEPES and 2.5 mM Probenecid) at an appropriate concentration to obtain final concentrations.
(§4) Sample compounds were plated in an eight-point, four-fold dilution series in duplicate with a top concentration of 10 μM. The concentrations described here reflect the final concentration of the compounds during the antagonist assay.
(§5) Reference agonists were handled as mentioned above serving as assay control. The reference agonists were handled as described above for Emax.
(§6) Assay was read for 180 seconds using the […] (This assay run added sample compounds and reference agonist to respective wells). At the completion of the first “Single Addition” assay run, assay plate was removed from the […] and placed at 25° C. for seven (7) minutes.
(§7) Using the EC80 values determined during the agonist assay, stimulated all pre-incubated sample compound and reference antagonist (if applicable) wells with EC80 of reference agonist. Read for 180 seconds using the […] (This assay added reference agonist to respective wells—then fluorescence measurements were collected to calculate percentage inhibition values).
(§8) All plates were subjected to appropriate baseline corrections. Once baseline corrections were processed, maximum fluorescence values were exported and data manipulated to calculate percentage activation, percentage inhibition and Z′.

[2] = target: T1, S1P4 (Homo sapiens, UniProt O95977); assay: S1P receptor activity assay (calcium flux, FLIPR TETRA), S1P4; assay type: cell-based
T1 sequence (O95977 1-384): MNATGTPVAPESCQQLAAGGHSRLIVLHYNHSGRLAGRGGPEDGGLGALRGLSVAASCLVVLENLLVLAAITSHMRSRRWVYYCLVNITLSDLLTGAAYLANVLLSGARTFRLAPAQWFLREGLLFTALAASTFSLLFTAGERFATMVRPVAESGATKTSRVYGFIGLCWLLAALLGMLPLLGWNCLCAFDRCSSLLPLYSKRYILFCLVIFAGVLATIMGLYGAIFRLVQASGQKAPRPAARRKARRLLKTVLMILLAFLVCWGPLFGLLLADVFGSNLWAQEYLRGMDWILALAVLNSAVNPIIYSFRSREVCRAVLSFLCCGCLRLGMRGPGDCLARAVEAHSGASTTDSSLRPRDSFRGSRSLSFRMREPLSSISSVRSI
Description: as §1, §2, §3, §4, §5, §6, §7, §8

[3] = target: S1P1 (Homo sapiens, UniProt P21453); assay: S1P receptor activity assay (calcium flux, FLIPR TETRA), S1P1; assay type: cell-based
S1P1, sequence (P21453 whole entry): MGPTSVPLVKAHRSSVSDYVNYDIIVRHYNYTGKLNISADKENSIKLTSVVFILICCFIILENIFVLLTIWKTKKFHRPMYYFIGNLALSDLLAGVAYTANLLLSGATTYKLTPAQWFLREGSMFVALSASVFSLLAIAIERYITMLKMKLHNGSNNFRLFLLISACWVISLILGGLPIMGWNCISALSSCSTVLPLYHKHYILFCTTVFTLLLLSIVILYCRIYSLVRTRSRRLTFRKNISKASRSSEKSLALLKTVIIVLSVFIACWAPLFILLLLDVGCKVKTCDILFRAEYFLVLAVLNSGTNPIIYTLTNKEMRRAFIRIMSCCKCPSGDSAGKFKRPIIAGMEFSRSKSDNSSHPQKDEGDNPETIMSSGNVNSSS
Description: as §1, §2, §3, §4, §5, §6, §7, §8

[4] = target: T2, Human ATX protein (Homo sapiens, UniProt Q13822); assay: Autotaxin (ATX) FRET assay with FS-3 substrate; assay type: biochemical
T2 construct: made in house
Description: ATX (Autotaxin) is a 125 KDa glycoprotein with lysophospholipase D (LPLD) activity that generates the bioactive lipid lysophosphatidic acid (LPA) from lysophosphatidylcholine (LPC). The ATX biochemical assay utilizes a FRET (fluorescence resonance energy transfer) technology platform. […] ATX catalyzes the hydrolysis of the substrate which separates the dabsyl quencher from the fluorescein reporter, which becomes fluorescent. The reaction is monitored by a SpectraMax M5 (Molecular Devices, Sunnyvale, Calif.) with at excitation wavelength 485 nm and emission wavelength 535 nm.
Fatty acid free-BSA (Sigma A8806): 10 mg/mL in H2O, stored at 4° C.
2×ATX assay buffer: 100 mM Tris, 280 mM NaCl, 10 mM KCl, 2 mM CaCl2, 2 mM MgCl2, pH 7.4.
Human ATX protein: expressed and purified in house. Stored at −80° C.
Substrate FS-3 (Echelon, L-2000): 100 μg in 77.74 μL H2O (1 mM stock), stored at −20° C.
Compound dilution—All compounds were provided at 10 mM in 100% DMSO. In the first well, 2 μL of 10 mM compound was added to 78 μL of DMSO (1:40 dilution). In subsequent wells 3-fold dilution (total 10 dilutions) were performed.
1×ATX assay buffer was made up with a final concentration of 1 mg/mL fatty acid free-BSA using 2×ATX assay buffer, 10 mg/ml fatty acid free-BSA and ddH2O.
38 μL was added per well to the assay plate. The final concentration of ATX in the reaction as 1.0 μg/mL.
2 μL per well of compounds was transferred to provide the desired concentration. The plate was centrifuged, then incubated at room temperature for 30 minutes on the shaker.
FS-3 was diluted with 1×ATX assay buffer to a concentration of FS-3 of 10 μM (5×). Then, 10 μL was added per well to the assay plate. The final concentration of FS-3 in the reaction was 2 μM. The plate was centrifuged. The plate was kept shaking at room temperature for 2 hours. Because FS-3 substrate is light sensitive, plates were kept covered and protected from light.

[5] = calcium flux, top concentration 10 μM, read-out: IC50 for S1P5
[6] = calcium flux, top concentration 10 μM, the >5 μM sentence says only 'for S1P4', read-out: IC50 for S1P4 agonist activity
[7] = calcium flux, top concentration 10 μM, the >5 μM sentence says only 'for S1P1', read-out: IC50 for S1P1 agonist activity
[8] = FS-3 2 μM, ATX 1.0 μg/mL, 2 hours at room temperature, read-out: IC50 (ATX)

S1P5, sequence (Q9H228 whole entry): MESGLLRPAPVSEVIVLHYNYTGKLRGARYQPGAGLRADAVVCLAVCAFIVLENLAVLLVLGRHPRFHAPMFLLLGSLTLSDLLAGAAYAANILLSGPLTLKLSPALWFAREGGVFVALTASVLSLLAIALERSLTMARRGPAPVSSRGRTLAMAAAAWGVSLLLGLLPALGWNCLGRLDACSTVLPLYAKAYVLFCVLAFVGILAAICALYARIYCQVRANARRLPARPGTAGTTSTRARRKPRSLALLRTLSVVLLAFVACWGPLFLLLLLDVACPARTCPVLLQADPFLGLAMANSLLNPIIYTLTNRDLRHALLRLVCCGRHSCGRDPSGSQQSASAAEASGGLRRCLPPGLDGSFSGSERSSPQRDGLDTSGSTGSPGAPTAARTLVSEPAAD

Row | Structure (SMILES) | IC50 [1, 5] [µM] | IC50 [2, 6] [µM] | IC50 [3, 7] [µM] | IC50 [4, 8] [µM] | IC50 [2] [µM] | IC50 [3] [µM] | IC50 [1] [µM] | IC50 [4] [µM]
1 | CC(C)(C)[C@H]1CC[C@H](Oc2ccc(N3CCN(CC45CCC(C(=O)O)(CC4)CC5)CC3)cc2)CC1 [Example 19, 4-((4-(4-((trans-4-(tert-Butyl)cyclohexyl)oxy)phenyl)piperazin-1-yl)methyl)bicyclo[2.2.2]octane-1-carboxylic acid] | > 5 | ≤ 2 | > 5 | ≤ 5 |  |  |  | 
2 | CCCCCCCCOc1ccc(N2CCN(CCC(=O)O)CC2)nn1 [Example 20, 3-(4-(6-(Octyloxy)pyridazin-3-yl)piperazin-1-yl)propanoic acid] | > 5 | 2 to 5 | > 5 | 5 to 10 |  |  |  | 
3 | CCCCCCCCOc1cnc(N2CCN(CCC(=O)O)CC2)nc1 [Example 21, 3-(4-(5-(Octyloxy)pyrimidin-2-yl)piperazin-1-yl)propanoic acid] | > 5 | ≤ 2 | > 5 | 5 to 10 |  |  |  | 
4 | CCCCCCCCOc1ccc(C2CCCN(C3CCC(C(=O)O)CC3)C2)cc1 (stereo not drawn) [Example 26, 4-(3-(4-(Octyloxy)phenyl)piperidin-1-yl)cyclohexanecarboxylic acid] | > 5 | 2 to 5 | > 5 | 5 to 10 |  |  |  | 
5 | CC[C@H]1CC[C@H](Oc2ccc(C3=CCN(CCC(=O)O)CC3)cc2)CC1 [Example 27, 3-(4-(4-((trans-4-Ethylcyclohexyl)oxy)phenyl)-5,6-dihydropyridin-1(2H)-yl)propanoic acid] | > 5 |  |  | 5 to 10 | > 5 | > 5 |  | 
6 | CC[C@H]1CC[C@H](Oc2ccc(C3=CCN(CCCC(=O)O)CC3)cc2)CC1 [Example 29, 4-(4-(4-((trans-4-Ethylcyclohexyl)oxy)phenyl)-5,6-dihydropyridin-1(2H)-yl)butanoic acid] | > 5 |  |  | > 10 | ≤ 2 | > 5 |  | 
7 | CC[C@H]1CC[C@H](Oc2ccc(C3=CCN(CCCCC(=O)O)CC3)cc2)CC1 [Example 31, 5-(4-(4-((trans-4-Ethylcyclohexyl)oxy)phenyl)-5,6-dihydropyridin-1(2H)-yl)pentanoic acid] | > 5 |  |  | > 10 | ≤ 2 | > 5 |  | 
8 | CC[C@H]1CC[C@@H](Oc2ccc(C3=CCN(CCC(=O)O)CC3)cc2)CC1 [Example 33, 3-(4-(4-((cis-4-Ethylcyclohexyl)oxy)phenyl)-5,6-dihydropyridin-1(2H)-yl)propanoic acid] |  |  |  |  | ≤ 2 | > 5 | > 5 | > 10
9 | CC[C@H]1CC[C@@H](Oc2ccc(C3=CCN(CCCC(=O)O)CC3)cc2)CC1 [Example 35, 4-(4-(4-((cis-4-Ethylcyclohexyl)oxy)phenyl)-5,6-dihydropyridin-1(2H)-yl)butanoic acid] | > 5 |  |  | > 10 | ≤ 2 | > 5 |  | 
10 | CC[C@H]1CC[C@@H](Oc2ccc(C3=CCN(CCCCC(=O)O)CC3)cc2)CC1 [Example 37, 5-(4-(4-((cis-4-Ethylcyclohexyl)oxy)phenyl)-5,6-dihydropyridin-1(2H)-yl)pentanoic acid] | 2 to 5 |  |  | ≤ 5 | ≤ 2 | ≤ 2 |  | 
11 | O=C(O)CCN1CC=C(c2ccc(OC3CCC4(CCCC4)CC3)cc2)CC1 [Example 39, 3-(4-(4-(Spiro[4.5]decan-8-yloxy)phenyl)-5,6-dihydropyridin-1(2H)-yl)propanoic acid] |  |  |  |  | 2 to 5 | > 5 | > 5 | > 10
12 | O=C(O)CCN1CCC(c2ccc(OC3CCC4(CCCC4)CC3)cc2)CC1 [Example 40, 3-(4-(4-(Spiro[4.5]decan-8-yloxy)phenyl)piperidin-1-yl)propanoic acid] | ≤ 2 | ≤ 2 | 2 to 5 | ≤ 5 |  |  |  | 
13 | O=C(O)CCCN1CC=C(c2ccc(OC3CCC4(CCCC4)CC3)cc2)CC1 [Example 41, 4-(4-(4-(Spiro[4.5]decan-8-yloxy)phenyl)-5,6-dihydropyridin-1(2H)-yl)butanoic acid] | 2 to 5 | 2 to 5 | > 5 | ≤ 5 |  |  |  | 
14 | O=C(O)CCCN1CCC(c2ccc(OC3CCC4(CCCC4)CC3)cc2)CC1 [Example 42, 4-(4-(4-(Spiro[4.5]decan-8-yloxy)phenyl)piperidin-1-yl)butanoic acid] | > 5 | 2 to 5 | > 5 | 5 to 10 |  |  |  | 
15 | O=C(O)CCCCN1CC=C(c2ccc(OC3CCC4(CCCC4)CC3)cc2)CC1 [Example 43, 5-(4-(4-(Spiro[4.5]decan-8-yloxy)phenyl)-5,6-dihydropyridin-1(2H)-yl)pentanoic acid] | > 5 |  |  | > 10 | 2 to 5 | > 5 |  | 

The next lines start with results.

Row | IC50 [1, 5] [µM] | IC50 [2, 6] [µM] | IC50 [3, 7] [µM] | IC50 [4, 8] [µM] | Structure (SMILES) | IC50 [2] [µM] | IC50 [3] [µM] | IC50 [1] [µM] | IC50 [4] [µM]
16 | > 5 | > 5 | > 5 | > 10 | CC[C@H]1CC[C@H](Oc2ccc(C3CCN(CCC(=O)O)CC3)cc2)CC1 [Example 28, 3-(4-(4-((trans-4-ethylcyclohexyl)oxy)phenyl)piperidin-1-yl)propanoic acid] |  |  |  | 
17 | > 5 | ≤ 2 | > 5 | > 10 | CC[C@H]1CC[C@H](Oc2ccc(C3CCN(CCCC(=O)O)CC3)cc2)CC1 [Example 30, 4-(4-(4-((trans-4-Ethylcyclohexyl)oxy)phenyl)piperidin-1-yl)butanoic acid] |  |  |  | 
18 | > 5 | > 5 | > 5 | ≤ 5 | CC[C@H]1CC[C@H](Oc2ccc(C3CCN(CCCCC(=O)O)CC3)cc2)CC1 [Example 32, 5-(4-(4-((trans-4-Ethylcyclohexyl)oxy)phenyl)piperidin-1-yl)pentanoic acid] |  |  |  | 
19 | > 5 | > 5 | > 5 | > 10 | CC[C@H]1CC[C@@H](Oc2ccc(C3CCN(CCC(=O)O)CC3)cc2)CC1 [Example 34, 3-(4-(4-((cis-4-Ethylcyclohexyl)oxy)phenyl)piperidin-1-yl)propanoic acid] |  |  |  | 
20 | > 5 | 2 to 5 | > 5 | 5 to 10 | CC[C@H]1CC[C@@H](Oc2ccc(C3CCN(CCCC(=O)O)CC3)cc2)CC1 [Example 36, 4-(4-(4-((cis-4-Ethylcyclohexyl)oxy)phenyl)piperidin-1-yl)butanoic acid] |  |  |  | 
21 | > 5 | ≤ 2 | 2 to 5 | > 10 | CC[C@H]1CC[C@@H](Oc2ccc(C3CCN(CCCCC(=O)O)CC3)cc2)CC1 [Example 38, 5-(4-(4-((cis-4-Ethylcyclohexyl)oxy)phenyl)piperidin-1-yl)pentanoic acid] |  |  |  | 
